This note sets out measurements from paper PMC11163988, “Cloning, expression, and purification of an α-carbonic anhydrase from Toxoplasma gondii to unveil its kinetic parameters and anion inhibition profile” (Journal of Enzyme Inhibition and Medicinal Chemistry, 2024).

A value given as a limit tells only on which side of the number the result lay.

Tg_CA (Toxoplasma gondii α-CA), sequence (S8F479 486-829 limits assumed): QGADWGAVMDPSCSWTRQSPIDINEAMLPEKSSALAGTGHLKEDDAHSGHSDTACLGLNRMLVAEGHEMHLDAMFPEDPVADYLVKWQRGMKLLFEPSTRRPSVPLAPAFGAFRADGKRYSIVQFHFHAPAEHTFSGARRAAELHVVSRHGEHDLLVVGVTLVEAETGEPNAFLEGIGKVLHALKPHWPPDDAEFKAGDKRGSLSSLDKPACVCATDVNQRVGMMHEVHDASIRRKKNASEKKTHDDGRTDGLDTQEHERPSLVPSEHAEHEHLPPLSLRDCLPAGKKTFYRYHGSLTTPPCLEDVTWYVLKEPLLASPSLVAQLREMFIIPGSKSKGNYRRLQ

One assay addresses Tg_CA (Toxoplasma gondii α-CA) (Toxoplasma gondii, UniProt S8F479). The assay is described as follows: biochemical. The class given is biochemical.
Settings: not given
Take `OB(O)c1ccccc1` [Ph-B(OH)2, phenylboronic acid]: affinity was put at a Ki of 5.1 mM.

The assay is the same for the next values; noted with them: pH 7.5; read-out: KI (mM) Tg_CAα.
For `OB1OB2OB(O)OB(O1)O2` [B4O7^2–, tetraborate], the Ki – broadly, the dissociation constant of the complex between target and ligand, obtained from inhibition or displacement – was determined as 63.9 mM.

Turning to `F[B-](F)(F)F` [BF4^–, tetrafluoroborate], the Ki came out at 25 mM.

As to `Br` [Br^–], the Ki is greater than 100 mM.

Consider `O=S(=O)(O)C(F)(F)F` [CF3SO3^–, triflate], for which the Ki turned out to be 7.1 mM.

Consider `N#CO` [CNO^–, cyanate], for which the Ki is 49.6 mM.

In the case of `O=C(O)O` [CO3^2–, carbonate], the Ki was found to be 98.2 mM.

Take `S=C(S)S` [CS3^2–, trithiocarbonate]: the Ki was 4.8 mM.

`[O-][Cl+3]([O-])([O-])O` [ClO4^–, perchlorate]: the Ki was determined as 77.8 mM.

Turning to `Cl` [Cl^–, chloride], the Ki is greater than 100 mM.

Take `CCN(CC)C(=S)S` [Et2NCS2^–, N,N-diethyldithiocarbamate]: the Ki came to 3.1 mM.

In the case of `F` [F^–], the Ki was greater than 100 mM.

For `NS(N)(=O)=O` [H2NSO2NH2, sulfamide], the Ki was found to be 0.92 mM.

Regarding `NS(=O)(=O)O` [H2NSO3H, sulphamic acid], the Ki was 0.68 mM.

`O=C(O)O` [HCO3^–, bicarbonate]: the Ki was greater than 100 mM.

Consider `O=S(O)O` [HSO3^–, bisulphite], for which the Ki came out at 9.1 mM.

As for `S` [HS^–, hydrogensulfide], the Ki was 45.7 mM.

Consider `I` [I^–], for which the Ki was greater than 100 mM.

For the compound `[N-]=[N+]=[N-]` [N3^–, azide], the Ki was greater than 100 mM.

As to `O=S(=O)(O)NS(=O)(=O)O` [NH(SO3)2^2–, iminodisulfonate], the Ki is 8.5 mM.

As for `O=NO` [NO2^–, nitrite], the Ki came out at 6.4 mM.

With `O=[N+]([O-])O` [NO3^–, nitrate], the Ki is 8.5 mM.

Consider `O=P(O)(O)OP(=O)(O)O` [P2O7^4–, diphosphate], for which the Ki turned out to be 35.7 mM.

Turning to `F[P-](F)(F)(F)(F)F` [PF6^–, haxafluorophosphate], the inhibition constant (Ki) was 1.9 mM.

With `[O]=[Re](=[O])(=[O])[OH]` [ReO4^–, perrhenate], the Ki came out at 3.4 mM.

On to `[O]=[Ru](=[O])(=[O])=[O]` [RuO4^–, perruthenate], for which the Ki amounted to 2.3 mM.

For the compound `O=S(=O)(O)OOS(=O)(=O)O` [S2O8^2–, peroxydisulfate], the Ki is 26.6 mM.

As to `N#CS` [SCN^–, thiocyanate], the Ki was 31.9 mM.

As to `O=S(=O)(O)O` [SO4^2–, sulphate], the Ki came out at 6 mM.

As for `N#C[SeH]` [SeCN^–, selenocyanate], the Ki is greater than 100 mM.

Regarding `O=[Te](=O)(O)O` [TeO4^2–, tellurate], the Ki came to 2.5 mM.

In the case of `[O]=[V]([OH])([OH])[O][V](=[O])([OH])[OH]` [V2O7^4–, divanadate], the Ki is 39.8 mM.

In another assay the target is hCA II (Homo sapiens, UniProt P00918). In words: stopped-flow CO2 hydrase assay, hCA II. The class given is biochemical. The settings on record: 20 mM Hepes pH 7.5, 20 mM NaClO4, mean from 3 assays.
Turning to `F[P-](F)(F)(F)(F)F` [PF6^–, haxafluorophosphate], the inhibition constant Ki is greater than 100 mM.
